From patent US20260042747A1, “KIT INHIBITORS, COMPOUNDS, PHARMACEUTICAL COMPOSITIONS, AND METHODS OF USE THEREOF” (Alivexis, Inc., priority 2022, published 2026)
Counter-ions that a name gives are not always drawn. Like-named read-outs stand apart in the source and are kept apart here.

How the values were obtained:
[1] = target: recombinant human KIT tyrosine kinase protein (Homo sapiens (Human), UniProt P10721); test: KIT tyrosine kinase assay (ADP-Glo); format: biochemical
[2] = system: M-07e cells; test: SCF-dependent M-07e cell proliferation assay; format: cell-based, human; settings: read-out: M-07e IC50
Description: SCF-dependent cell proliferation assay was developed to measure the inhibitory potency of the compounds in M-07e cells, which express wild-type human KIT protein. The assay was performed in 96-well plates and the IC50 of each KIT inhibitor was determined by CellTiter Glo Assay reagent and Victor X5 Multilabel Counter (Perkin Elmer).
M-07e cells were purchased from AcceGen Biotechnology. Cells were maintained with M-07e Growth medium: RPMI-1640 containing 20% FBS, 100 U/mL penicillin and 100 microgram/mL streptomycin, 10 ng/mL rhGM-CSF, 10 ng/mL rhSCF. M-07e cells were seeded at a density of 5000 cells/90 μL/well in 96-well plates. Test compounds were dissolved in 100% DMSO to make 20 mM stock solution and serially diluted 1:3 with 100% DMSO to make an 11-point dilution series with concen-trations from […] to 0.024 μM. The serially diluted compounds were then each diluted 1:50 with culture medium to obtain assay compound solutions containing 2% DMSO. Ten μL of assay compound solutions were added to the 90 μL of culture cell suspension in the 96-well plate, with a final DMSO concentration of 0.2%. The plates were then incubated in a 5% CO2 incubator at 37° C. for 3 days. To obtain Day Zero Controls for background calculation, cells were seeded at 5000 cells/100 μL in a new 96-well plate and processed on the same day. Both Day Zero controls and 3 day culture plates were then treated as follows. 100 μL of CellTiter Glo Assay reagent was added to each well and the plate was incubated at room temperature for 15 min on a shaker at 200-300 RPM. Then 100 μL of cell lysate samples were transferred to white wall 96-well plates and luminescence was measured by a plate reader. The luminescence of Day Zero Control was subtracted from the luminescence intensity of 3 day culture readings. The assay control for this experiment was cells treated with 0.2% DMSO in culture medium and wells with 100 μL of culture medium (0.2% DMSO without cells) were used as the blank for data analysis.
The IC50 value of each compound was determined by using % inhibition by nor-malizing inhibition in DMSO treated control wells to 0% using the following formula method: […]
Plot percent inhibition in proliferation of triplicates against the respective concen-trations of compound and fit the dose response curve using the sigmoidal dose response equation to generate the IC50 in GraphPad Prism 8 software.

[3] = SCF-dependent M-07e cell proliferation, 3 days, CellTiter Glo
[4] = Homo sapiens, M-07e, 72 h, SCF-dependent M-07e cell proliferation, 3 days, CellTiter Glo

Sequence of recombinant human KIT tyrosine kinase protein (P10721 546-976): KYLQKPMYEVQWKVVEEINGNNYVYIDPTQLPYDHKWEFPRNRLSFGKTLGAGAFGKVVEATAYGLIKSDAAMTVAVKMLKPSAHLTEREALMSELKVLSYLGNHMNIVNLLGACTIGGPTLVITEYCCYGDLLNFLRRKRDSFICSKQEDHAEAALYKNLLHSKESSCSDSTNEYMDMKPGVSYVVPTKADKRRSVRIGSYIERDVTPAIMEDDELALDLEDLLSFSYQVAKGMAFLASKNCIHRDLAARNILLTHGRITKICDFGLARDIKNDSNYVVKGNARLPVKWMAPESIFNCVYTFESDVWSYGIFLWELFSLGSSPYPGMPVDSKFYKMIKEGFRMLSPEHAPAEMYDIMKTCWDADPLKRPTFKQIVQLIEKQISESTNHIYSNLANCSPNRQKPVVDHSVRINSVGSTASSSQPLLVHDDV

Row | IC50 ([1]; Table 99) [nM] | SMILES | IC50 [2, 3] [nM] | IC50 ([1]; Table 98) [nM] | IC50 ([2]; Homo sapiens, M-07e, 72 h) [nM] | IC50 [2, 4] [nM]
1 | 22 | CN(c1ccc(CNC(=O)c2ccc3c(c2)[nH]c(=O)n3C)cn1)C1CC(OC(F)F)C1 (single isomer, unassigned) [106 Isomer II, N-((6-((3-(Difluoromethoxy)cyclobutyl)(methyl)amino)pyridin-3-yl)methyl)-1-methyl-2-oxo-2,3-dihydro-1H-benzimidazole-5-carboxamide] | 89 | – | – | –
2 | 25 | CN(c1ccc(CNC(=O)c2ccc3c(c2)[nH]c(=O)n3C)cn1)C1CC2(CC2)C1 [Example 109, 1-Methyl-N-((6-(methyl(spiro[2.3]hexan-5-yl)amino)pyridin-3-yl)methyl)-2-oxo-2,3-d ihydro-1H-benzimidazole-5-carboxamide formate] | – | – | – | 12
3 | 35 | CN(c1ccc(CNC(=O)c2cc(F)c3[nH]c(=O)[nH]c3c2)cn1)C1CCC(F)(F)CC1 [Example 143] | – | – | – | 1460
4 | 28 | CN(c1ccc(CNC(=O)c2ccc3c(c2)[nH]c(=O)n3C)cn1)C1CC(OC(F)(F)F)C1 (single isomer, unassigned) [107 Isomer II, 1-Methyl-N-((6-(methyl(3-(trifluoromethoxy)cyclobutyl)amino)pyridin-3-yl)methyl)-2-oxo-2,3-dihydro-1H-benzimidazole-5-carboxamide] | 286 | – | – | –
5 | 20 | CC(C)N(C)c1ccc(CNC(=O)c2ccc3[nH]c(=O)[nH]c3c2)cn1 [Example 129] | – | – | – | 1020
6 | 79 | CC(NC(=O)c1ccc2c(c1)[nH]c(=O)n2C)c1ccc(N(C)C(C)C)nc1 (single isomer, unassigned) [130 Peak 1] | – | – | – | 621
7 | 75 | CN(c1ccc(CNC(=O)c2cc3[nH]c(=O)n(C)c3cc2F)cn1)C1CC(F)(F)C1 [Example 139] | – | – | – | 636
8 | 222 | CC(NC(=O)c1ccc2c(c1)[nH]c(=O)n2C)c1ccc(N(C)C(C)C)nc1 (centres unmarked) [Example 130] | – | – | – | 1860
9 | 18 | CN(c1ccc(CNC(=O)c2ccc3c(c2)[nH]c(=O)n3C)cn1)C1CC(OC(F)(F)F)C1 (single isomer, unassigned) [107 Isomer I, 1-Methyl-N-((6-(methyl(3-(trifluoromethoxy)cyclobutyl)amino)pyridin-3-yl)methyl)-2-oxo-2,3-dihydro-1H-benzimidazole-5-carboxamide] | 47 | – | – | –
10 | 33 | CN(c1ccc(CNC(=O)c2ccc3c(c2)[nH]c(=O)n3C)cn1)[C@H]1CC[C@@H](F)C1 [Example 110, N-((6-(((1S,3R)-3-Fluorocyclopentyl)(methyl)amino)pyridin-3-yl)methyl)-1-methyl-2-ox o-2,3-dihydro-1H-benzimidazole-5-carboxamide] | – | – | – | 55

Continued, compound first:

Row | SMILES | IC50 ([1]; Table 99) [nM] | IC50 [2, 3] [nM] | IC50 ([1]; Table 98) [nM] | IC50 ([2]; Homo sapiens, M-07e, 72 h) [nM] | IC50 [2, 4] [nM]
11 | Cn1c(=O)[nH]c2cc(C(=O)NCc3ccc(Oc4cccc(F)c4F)nc3)ccc21 [Example 36] | – | – | 50 | 870 | –
12 | CN(CC1CCOCC1)c1ccc(CNC(=O)c2ccc3c(c2)[nH]c(=O)n3C)cn1 [Example 72] | – | – | 84 | 800 | –
13 | CN(Cc1cccc(F)c1)c1ccc(CNC(=O)c2ccc3c(c2)[nH]c(=O)n3C)cn1 [Example 73] | – | – | 27 | 98 | –
14 | Cn1c(=O)[nH]c2cc(C(=O)NCc3cnc4c(ccn4-c4ccccc4F)c3)ccc21 [Example 100] | – | – | 53 | 250 | –
15 | Cn1c(=O)[nH]c2cc(C(=O)NCc3ccc(N4CCCC4(C)C)nc3)ccc21 [Example 97] | – | – | 34 | 240 | –
16 | CCN(c1ccc(F)cc1)c1ccc(CNC(=O)c2ccc3c(c2)[nH]c(=O)n3C)cn1 [Example 58] | – | – | 21 | 2400 | –
17 | CN(c1ccc(CNC(=O)c2cc(F)c3[nH]c(=O)[nH]c3c2)cn1)[C@H]1C[C@@H](C(F)(F)F)C1 [Example 142] | 18 | – | – | 278 | –
18 | CN(c1ccc(CNC(=O)c2cc3[nH]c(=O)[nH]c3c(F)c2F)cn1)C1CCC(F)(F)C1 (centres unmarked) [Example 146] | 30 | – | – | – | 621
19 | Cn1c(=O)[nH]c2cc(C(=O)NCc3cnc4c(c3)CCN4c3ccccc3F)ccc21 [Compound 19, N-((1-(2-Fluorophenyl)-2,3-dihydro-1H-pyrrolo[2,3-b]pyridin-5-yl)methyl)-1-methyl-2-o xo-2,3-dihydro-1H-benzimidazole-5-carboxamide] | – | – | 60 | – | 160
20 | Cn1c(=O)[nH]c2cc(C(=O)NCc3ccc(N(C)[C@H]4C[C@@H](C(F)(F)F)C4)nc3)ccc21 [Compound 12, 1-Methyl-N-((6-(methyl(cis-3-(trifluoromethyl)cyclobutyl)amino)pyridin-3-yl)methyl)-2-oxo-2,3-dihydro-1H-benzimidazole-5-carboxamide] | – | – | 36 | – | 38
21 | CC(c1ccccc1)N(C)c1ccc(CNC(=O)c2ccc3c(c2)[nH]c(=O)n3C)cn1 (single isomer, unassigned) [82 Peak 2] | – | 620 | 29 | – | –
22 | CN(c1cnc(CNC(=O)c2cc3[nH]c(=O)[nH]c3cc2F)cn1)C1CCC(F)(F)C1 (centres unmarked) [Example 138] | 35 | – | – | 4570 | –
23 | CN(c1ccc(CNC(=O)c2ccc3c(c2)[nH]c(=O)n3C)cn1)C12CC(C1)C2 [Example 75] | – | – | 61 | 500 | –
24 | Cn1c(=O)[nH]c2cc(C(=O)NCc3cnc(N(C)[C@H]4C[C@@H](C(F)(F)F)C4)cn3)ccc21 [Example 95] | – | – | 24 | 190 | –
25 | Cn1c(=O)[nH]c2cc(C(=O)NCc3cnc4c(c3)CCN4C3CCC(F)(F)CC3)ccc21 [Compound 18, N-((1-(4,4-difluorocyclohexyl)-2,3-dihydro-1H-pyrrolo[2,3-b]pyridin-5-yl)methyl)-1-met hyl-2-oxo-2,3-dihydro-1H-benzimidazole-5-carboxamide] | – | – | 57 | – | 210
26 | Cn1c(=O)[nH]c2cc(C(=O)NCc3ccc(OC4CC(C(F)(F)F)C4)nc3)ccc21 (centres unmarked) [Compound 103, 1-Methyl-2-oxo-N-((6-(3-(trifluoromethyl)cyclobutoxy)pyridin-3-yl)methyl)-2,3-dihyd ro-1H-benzimidazole-5-carboxamide] | 42 | – | – | – | 819
27 | CN(Cc1ccccc1)c1ccc(CNC(=O)c2ccc3c(c2)[nH]c(=O)n3C)cn1 [Example 66] | – | – | 33 | 79 | –
28 | CN(Cc1ccccn1)c1ccc(CNC(=O)c2ccc3c(c2)[nH]c(=O)n3C)cn1 [Example 76] | – | – | 86 | 1600 | –
29 | CN(c1ccc(CNC(=O)c2ccc3c(c2)[nH]c(=O)n3C)cn1)c1ccccc1F [Example 59] | – | – | 14 | 190 | –
30 | CN(c1ccc(CNC(=O)c2cc3[nH]c(=O)[nH]c3cc2F)cn1)C1CCC(F)(F)C1 (centres unmarked) [Example 140] | 18 | – | – | – | 99
31 | CN(c1ccc(CNC(=O)c2ccc3c(c2)[nH]c(=O)n3C)cn1)C1CC(C)(C)C1 [Example 77] | – | – | 29 | 110 | –
32 | C[C@@H]1CCCN1c1ccc(CNC(=O)c2ccc3c(c2)[nH]c(=O)n3C)cn1 [Example 99] | – | – | 50 | 540 | –
33 | CC(c1ccccc1)N(C)c1ccc(CNC(=O)c2ccc3c(c2)[nH]c(=O)n3C)cn1 (centres unmarked) [Example 82] | – | – | 75 | – | 730
34 | CN(CC1CCC(F)(F)CC1)c1ccc(CNC(=O)c2ccc3c(c2)[nH]c(=O)n3C)cn1 [Example 70] | – | – | 61 | 140 | –
